Data on nine compounds can be found in PubChem BioAssay (NCI).

Among the test systems are UO-31 renal; MALME-3M melanoma; SK-OV-3 ovarian; HOP-62 NSCLC; HS 578T breast; SK-MEL-28 melanoma; TK-10 renal; OVCAR-5 ovarian; HCT-116 colon; NCI-H522 lung.
What all share (assay): DTP human tumour cell line panel, 48 h

Each structure is given as a SMILES string.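 Where inhibition never reached the appropriate level, the endpoint shown equals the highest concentration tested. Otherwise, values were interpolated linearly from a five-concentration, 48-hour dose response in 96-well plates. Here, GI50 denotes the concentration required for 50% inhibition of growth. TGI marks complete inhibition of growth.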

The term GI50 denotes the concentration that inhibits growth by half. A word on the TGI: it is the concentration at which net growth stops. High values mean less potent growth arrest, low ones more potent growth arrest. As to `CC(=O)/C=C/C1=C(c2ccsc2)c2ccccc2CC1`, the GI50 was 19.4 µM in the test with UO-31 renal; 23.6 µM in the test with MALME-3M melanoma; 64.4 µM in the test on SK-OV-3 ovarian; 26.1 µM in the test with HOP-62 NSCLC; 48.4 µM with HS 578T breast; 49.1 µM with SK-MEL-28 melanoma. Moreover, the GI50 with TK-10 renal is 33.6 µM; in the test on OVCAR-5 ovarian it was 27.1 µM; in the test with HCT-116 colon it was 22.8 µM; in the test on NCI-H522 lung, 15.3 µM. For the same compound, the TGI is 43.6 µM in the test with UO-31 renal; 58.1 µM in the test on MALME-3M melanoma; above 100 µM in the test with SK-OV-3 ovarian; 66.8 µM in the test with HOP-62 NSCLC; above 100 µM in the test on HS 578T breast; above 100 µM in the test with SK-MEL-28 melanoma. Also, the TGI is above 100 µM in the test with TK-10 renal, above 100 µM with OVCAR-5 ovarian, 50.3 µM in the test with HCT-116 colon and 31.3 µM with NCI-H522 lung.
For the compound `C[C@@H]1CN2[C@H]3[C@@H]1CC[C@]31CCC(=O)O[C@]1(C)[C@@H]1CC[C@H]3CCC=C3[C@@H]12`, the GI50 in the test on UO-31 renal was 43.5 µM; in the test with MALME-3M melanoma it was above 70 µM; in the test with SK-OV-3 ovarian, above 70 µM; in the test with HOP-62 NSCLC it was above 70 µM; in the test on HS 578T breast, above 70 µM; in the test with SK-MEL-28 melanoma, above 70 µM. Further, the GI50 in the test with TK-10 renal, in the test with OVCAR-5 ovarian, in the test with HCT-116 colon and in the test with NCI-H522 lung was above 70 µM throughout. The TGI in the test on UO-31 renal, with MALME-3M melanoma, in the test on SK-OV-3 ovarian, in the test with HOP-62 NSCLC, in the test with HS 578T breast and with SK-MEL-28 melanoma was above 70 µM each time. Besides, the TGI in the test on TK-10 renal, in the test on OVCAR-5 ovarian, in the test on HCT-116 colon and in the test on NCI-H522 lung was above 70 µM each time.
For `OC(c1ccccc1)c1c(-c2ccccc2)oc(-c2ccccc2)c1C(O)c1ccccc1` (stereo not given), the TGI in the test with UO-31 renal amounted to 25 µM; with MALME-3M melanoma it was 25.4 µM; in the test on SK-OV-3 ovarian, 30.1 µM; in the test on HOP-62 NSCLC it was 27.9 µM; with HS 578T breast it was 52.7 µM; with SK-MEL-28 melanoma, 27.9 µM. Besides, the TGI in the test with TK-10 renal was determined as 29 µM; in the test on OVCAR-5 ovarian, 32.6 µM; in the test on HCT-116 colon it was 18.3 µM; in the test on NCI-H522 lung, 11.1 µM.
As for `Cc1cc2nc3c4ccccc4n(CCN(C)C)c3nc2cc1C`, the GI50 was 0.726 µM in the test with UO-31 renal; 1.41 µM with MALME-3M melanoma; 3.1 µM in the test with SK-OV-3 ovarian; 1.11 µM with HOP-62 NSCLC; 1.57 µM in the test with HS 578T breast; 2.09 µM with SK-MEL-28 melanoma. Also, the GI50 was 2.98 µM with TK-10 renal, 2.1 µM in the test on OVCAR-5 ovarian, 0.488 µM with HCT-116 colon and 0.673 µM in the test on NCI-H522 lung. Also, the TGI was found to be 14.5 µM with UO-31 renal; 2.74 µM in the test with MALME-3M melanoma; 20.2 µM with SK-OV-3 ovarian; 7.74 µM in the test with HOP-62 NSCLC; 5.76 µM with HS 578T breast; 4.73 µM in the test with SK-MEL-28 melanoma. Besides, the TGI with TK-10 renal was 14.1 µM; with OVCAR-5 ovarian, 6.45 µM; in the test on HCT-116 colon, 11.3 µM; in the test on NCI-H522 lung it was 3.24 µM.
`NC(=O)NC(=O)C1CCCCC1C(=O)O` (stereo not given): the TGI in the test with UO-31 renal, with MALME-3M melanoma, with SK-OV-3 ovarian, with HOP-62 NSCLC, with HS 578T breast and in the test with SK-MEL-28 melanoma was above 100 µM throughout. Also, the TGI in the test with TK-10 renal, in the test with OVCAR-5 ovarian, in the test on HCT-116 colon and in the test with NCI-H522 lung was above 100 µM throughout.
Turning to `N#CSCC(=O)c1ccc(Cl)cc1`, the GI50 is 3.23 µM in the test with UO-31 renal; 5.76 µM in the test on MALME-3M melanoma; 4.35 µM with SK-OV-3 ovarian; 5.19 µM in the test with HOP-62 NSCLC; 2.9 µM with HS 578T breast; 6.17 µM in the test with SK-MEL-28 melanoma. Further, the GI50 in the test with TK-10 renal is 3.21 µM; with OVCAR-5 ovarian it was 5.39 µM; with HCT-116 colon, 3.09 µM; in the test with NCI-H522 lung, 2.69 µM. The TGI in the test on UO-31 renal was determined as 13.5 µM; with MALME-3M melanoma, 42.9 µM; in the test with SK-OV-3 ovarian it was 30.8 µM; in the test on HOP-62 NSCLC, 28.8 µM; with HS 578T breast, 16.3 µM; with SK-MEL-28 melanoma, 19.8 µM. The TGI was found to be 13.6 µM with TK-10 renal, 27.9 µM in the test with OVCAR-5 ovarian, 12.7 µM in the test with HCT-116 colon and 9.51 µM in the test on NCI-H522 lung.
On to `C/C(=N\Nc1cccc(Cl)n1)c1ccccn1`, for which the GI50 in the test with UO-31 renal is 0.466 µM; in the test with MALME-3M melanoma it was 1.78 µM; with SK-OV-3 ovarian, 1.08 µM; in the test on HOP-62 NSCLC, 0.456 µM; in the test on HS 578T breast it was 5.08 µM; in the test on SK-MEL-28 melanoma, 1.65 µM. For the same compound, the GI50 in the test with TK-10 renal was 0.7 µM; with OVCAR-5 ovarian it was 0.819 µM; with HCT-116 colon it was 0.401 µM; in the test with NCI-H522 lung, 0.508 µM. For the same compound, the TGI was 4.33 µM in the test on UO-31 renal; 8.71 µM in the test on MALME-3M melanoma; above 43.2 µM in the test with SK-OV-3 ovarian; 16.9 µM in the test on HOP-62 NSCLC; above 100 µM in the test on HS 578T breast; above 100 µM in the test on SK-MEL-28 melanoma. Besides, the TGI was above 100 µM with TK-10 renal, above 100 µM in the test on OVCAR-5 ovarian, above 100 µM in the test with HCT-116 colon and above 40.3 µM with NCI-H522 lung.
Regarding `Nc1cccc2nsnc12`, the TGI with UO-31 renal, in the test with MALME-3M melanoma, in the test with SK-OV-3 ovarian, in the test with HOP-62 NSCLC, in the test with HS 578T breast and in the test with SK-MEL-28 melanoma was above 100 µM each time. The TGI is above 100 µM in the test on TK-10 renal, above 100 µM in the test on OVCAR-5 ovarian, above 100 µM with HCT-116 colon and above 52.2 µM with NCI-H522 lung.
For the compound `CCNCCNc1cc(-c2cccc(C(F)(F)F)c2)c(C#N)c2nc3ccccc3n12`, the GI50 with UO-31 renal was 0.603 µM; with MALME-3M melanoma, 1.64 µM; in the test on SK-OV-3 ovarian it was 2 µM; in the test on HOP-62 NSCLC, 2.13 µM; in the test with HS 578T breast it was 1.84 µM; in the test with SK-MEL-28 melanoma, 1.86 µM. The GI50 in the test with TK-10 renal was 2.14 µM; in the test on OVCAR-5 ovarian, 1.83 µM; with HCT-116 colon, 0.239 µM; with NCI-H522 lung, 1.86 µM. Besides, the TGI with UO-31 renal turned out to be 2.07 µM; in the test with MALME-3M melanoma, 3.29 µM; with SK-OV-3 ovarian, 3.49 µM; with HOP-62 NSCLC, 3.8 µM; with HS 578T breast it was 3.88 µM; in the test with SK-MEL-28 melanoma, 3.63 µM. The TGI in the test on TK-10 renal is 3.69 µM; in the test on OVCAR-5 ovarian, 3.71 µM; in the test on HCT-116 colon, 0.515 µM; in the test with NCI-H522 lung, 3.46 µM.
